Results taken from ChEMBL document CHEMBL3045984, “Resistance to HPPD-inhibiting herbicides in a population of waterhemp (Amaranthus tuberculatus) from Illinois, United States” (2011).

Assays:
Format in all cases: functional
Amaranthus tuberculatus [1] = test: Herbicidal activity against Amaranthus tuberculatus biotype WCS assessed as visual injury at 560 g/ha applied as spray after 21 days under green house conditions relative to untreated control
Amaranthus tuberculatus [2] = test: Herbicidal activity against Amaranthus tuberculatus biotype MCR 16 assessed as visual injury at 560 g/ha applied as spray after 14 days under green house conditions relative to untreated control
Amaranthus tuberculatus [3] = test: Herbicidal activity against Amaranthus tuberculatus biotype MCR 16 assessed as visual injury at 560 g/ha applied as spray after 7 days under green house conditions relative to untreated control
Amaranthus tuberculatus [4] = test: Herbicidal activity against Amaranthus tuberculatus biotype ACR assessed as visual injury at 560 g/ha applied as spray after 7 days under green house conditions relative to untreated control
Amaranthus tuberculatus [5] = test: Herbicidal activity against Amaranthus tuberculatus biotype MCR 15 assessed as visual injury at 560 g/ha applied as spray after 21 days under green house conditions relative to untreated control
Amaranthus tuberculatus [6] = test: Herbicidal activity against Amaranthus tuberculatus biotype MCR 16 assessed as visual injury at 560 g/ha applied as spray after 21 days under green house conditions relative to untreated control
Amaranthus tuberculatus [7] = test: Herbicidal activity against Amaranthus tuberculatus biotype MCR 12 assessed as visual injury at 560 g/ha applied as spray after 14 days under green house conditions relative to untreated control
Amaranthus tuberculatus [8] = test: Herbicidal activity against Amaranthus tuberculatus biotype WCS assessed as visual injury at 560 g/ha applied as spray after 14 days under green house conditions relative to untreated control
Amaranthus tuberculatus [9] = test: Herbicidal activity against Amaranthus tuberculatus biotype MCR 12 assessed as visual injury at 560 g/ha applied as spray after 7 days under green house conditions relative to untreated control
Amaranthus tuberculatus [10] = test: Herbicidal activity against Amaranthus tuberculatus biotype ACR assessed as visual injury at 560 g/ha applied as spray after 14 days under green house conditions relative to untreated control
Amaranthus tuberculatus [11] = test: Herbicidal activity against Amaranthus tuberculatus biotype MCR 15 assessed as visual injury at 560 g/ha applied as spray after 14 days under green house conditions relative to untreated control
Amaranthus tuberculatus [12] = test: Herbicidal activity against Amaranthus tuberculatus biotype MCR 12 assessed as visual injury at 560 g/ha applied as spray after 21 days under green house conditions relative to untreated control
Amaranthus tuberculatus [13] = test: Herbicidal activity against Amaranthus tuberculatus biotype WCS assessed as visual injury at 560 g/ha applied as spray after 7 days under green house conditions relative to untreated control
Amaranthus tuberculatus [14] = test: Herbicidal activity against Amaranthus tuberculatus biotype MCR 15 assessed as visual injury at 560 g/ha applied as spray after 7 days under green house conditions relative to untreated control
Amaranthus tuberculatus [15] = test: Herbicidal activity against Amaranthus tuberculatus biotype ACR assessed as visual injury at 560 g/ha applied as spray after 21 days under green house conditions relative to untreated control
Amaranthus tuberculatus [16] = test: Herbicidal activity against Amaranthus tuberculatus biotype WCS assessed as visual injury at 92 g/ha applied as spray after 7 days under green house conditions relative to untreated control
Amaranthus tuberculatus [17] = test: Herbicidal activity against Amaranthus tuberculatus biotype MCR 15 assessed as visual injury at 92 g/ha applied as spray after 7 days under green house conditions relative to untreated control
Amaranthus tuberculatus [18] = test: Herbicidal activity against Amaranthus tuberculatus biotype WCS assessed as visual injury at 92 g/ha applied as spray after 14 days under green house conditions relative to untreated control
Amaranthus tuberculatus [19] = test: Herbicidal activity against Amaranthus tuberculatus biotype MCR 15 assessed as visual injury at 92 g/ha applied as spray after 21 days under green house conditions relative to untreated control
Amaranthus tuberculatus [20] = test: Herbicidal activity against Amaranthus tuberculatus biotype WCS assessed as visual injury at 92 g/ha applied as spray after 21 days under green house conditions relative to untreated control
Amaranthus tuberculatus [21] = test: Herbicidal activity against Amaranthus tuberculatus biotype ACR assessed as visual injury at 92 g/ha applied as spray after 21 days under green house conditions relative to untreated control
Amaranthus tuberculatus [22] = test: Herbicidal activity against Amaranthus tuberculatus biotype MCR 16 assessed as visual injury at 92 g/ha applied as spray after 21 days under green house conditions relative to untreated control
Amaranthus tuberculatus [23] = test: Herbicidal activity against Amaranthus tuberculatus biotype MCR 15 assessed as visual injury at 92 g/ha applied as spray after 14 days under green house conditions relative to untreated control
Amaranthus tuberculatus [24] = test: Herbicidal activity against Amaranthus tuberculatus biotype MCR 16 assessed as visual injury at 92 g/ha applied as spray after 7 days under green house conditions relative to untreated control
Amaranthus tuberculatus [25] = test: Herbicidal activity against Amaranthus tuberculatus biotype ACR assessed as visual injury at 92 g/ha applied as spray after 7 days under green house conditions relative to untreated control
Amaranthus tuberculatus [26] = test: Herbicidal activity against Amaranthus tuberculatus biotype MCR 16 assessed as visual injury at 92 g/ha applied as spray after 14 days under green house conditions relative to untreated control
Amaranthus tuberculatus [27] = test: Herbicidal activity against Amaranthus tuberculatus biotype MCR 12 assessed as visual injury at 92 g/ha applied as spray after 7 days under green house conditions relative to untreated control
Amaranthus tuberculatus [28] = test: Herbicidal activity against Amaranthus tuberculatus biotype MCR 12 assessed as visual injury at 92 g/ha applied as spray after 21 days under green house conditions relative to untreated control
Amaranthus tuberculatus [29] = test: Herbicidal activity against Amaranthus tuberculatus biotype MCR 12 assessed as visual injury at 92 g/ha applied as spray after 14 days under green house conditions relative to untreated control
Amaranthus tuberculatus [30] = test: Herbicidal activity against Amaranthus tuberculatus biotype ACR assessed as visual injury at 92 g/ha applied as spray after 14 days under green house conditions relative to untreated control

## CCNc1nc(Cl)nc(NC(C)C)n1 [ATRAZINE]
Amaranthus tuberculatus [1]
  Activity: 81%
Amaranthus tuberculatus [2]
  Activity: 1%
Amaranthus tuberculatus [3]
  Activity: 5%
Amaranthus tuberculatus [4]
  Activity: 14%
Amaranthus tuberculatus [5]
  Activity: 1%
Amaranthus tuberculatus [6]
  Activity: 1%
Amaranthus tuberculatus [7]
  Activity: 4%
Amaranthus tuberculatus [8]
  Activity: 87%
Amaranthus tuberculatus [9]
  Activity: 7%
Amaranthus tuberculatus [10]
  Activity: 8%
Amaranthus tuberculatus [11]
  Activity: 2%
Amaranthus tuberculatus [12]
  Activity: 4%
Amaranthus tuberculatus [13]
  Activity: 83%
Amaranthus tuberculatus [14]
  Activity: 5%
Amaranthus tuberculatus [15]
  Activity: 4%

## CS(=O)(=O)c1ccc(C(=O)C2C(=O)CCCC2=O)c(Cl)c1COCC(F)(F)F [TEMBOTRIONE]
Amaranthus tuberculatus [16]
  Activity: 84%
Amaranthus tuberculatus [17]
  Activity: 48%
Amaranthus tuberculatus [18]
  Activity: 96%
Amaranthus tuberculatus [19]
  Activity: 35%
Amaranthus tuberculatus [20]
  Activity: 100%
Amaranthus tuberculatus [21]
  Activity: 94%
Amaranthus tuberculatus [22]
  Activity: 31%
Amaranthus tuberculatus [23]
  Activity: 34%
Amaranthus tuberculatus [24]
  Activity: 43%
Amaranthus tuberculatus [25]
  Activity: 56%
Amaranthus tuberculatus [26]
  Activity: 46%
Amaranthus tuberculatus [27]
  Activity: 40%
Amaranthus tuberculatus [28]
  Activity: 17%
Amaranthus tuberculatus [29]
  Activity: 30%
Amaranthus tuberculatus [30]
  Activity: 91%
